Test results: patent US20070010507A1, “Compounds useful in the therapy of alzheimer's disease and formulations containing them” (priority 2003, published 2007)

tested on: α-secretase-mediated APP metabolism (SH-SY5Y neuroblastoma cells); test: α-secretase-induced APPs release in culture medium of neuroblastoma cell line SH-SY5Y; format: cell-based; settings: 10 μM; APPs secreted in culture medium of SH-SY5Y cells; control = 100
Description: The salts according to the present invention are stable crystalline products having strong antidepressive and anti-Alzheimer actions. The effect of the compounds of the invention on α-secretase-induced APPs release was determined in the culture medium of a neuroblastoma cell line (SH-SY5Y) according to what reported by Galbete J. L. et al. in Biochem. 348,307-313, 2000.

First: CC(C)=CCC[C@]1(C)[C@@H](CC=C(C)C)C[C@@]2(CC=C(C)C)C(=O)[C@]1(C(=O)C(C)C)C(=O)C(CC=C(C)C)=C2O [Hyperforin]
Second: CC(C)CCCC1(C)C(CCC(C)C)CC2(CCC(C)C)C(=O)C1(C(=O)C(C)C)C(=O)C(CCC(C)C)=C2O.COc1ccc2c3c1OC1CC(O)C=CC31CCN(C)C2 (stereo not drawn) [Galantamonium octahydrohyperforinate, Galantamine octahydrohyperforinate]
The APPs % of the first is lower: 296% for the first, 3652% for the second.

Compared with “Memantine octahydrohyperforinate [Mentamine octahydrohyperforinate]”, `CC(C)CCC[C@]1(C)[C@@H](CCC(C)C)C[C@@]2(CCC(C)C)C(=O)[C@]1(C(=O)C(C)C)C(=O)C(CCC(C)C)=C2O` [Octahydrohyperforin] is lower in APPs %: 3221% for the first, 1383% for the second.

same assay, conditions: concentration not given; APPs secreted in culture medium of SH-SY5Y cells; control = 100

Compared with `COc1ccc2c3c1O[C@H]1C[C@@H](O)C=C[C@@]31CCN(C)C2` [Galantamine], `CC(C)=CCC[C@]1(C)[C@@H](CC=C(C)C)C[C@@]2(CC=C(C)C)C(=O)[C@]1(C(=O)C(C)C)C(=O)C(CC=C(C)C)=C2O.COc1ccc2c3c1O[C@H]1C[C@@H](O)C=C[C@@]31CCN(C)C2` [Galantamonium hyperforinate] is higher in APPs %: 302% for the first, 773% for the second.
